# Test system: arachidonic acid-induced inflammatory reaction, mouse ear
# Experiment: Arachidonic Acid Mouse Ear Test
# Assay type: in vivo, Charles River, female, CD, (SD) BR mice
# Conditions: topical, 30 minutes prior to AA challenge; for Tissue Wt.: 6 mm punch biopsy 1 hour after AA, mean ± standard error; for % Inhibition: biopsy 1 hour after AA
# Source text: A compound of formula I may be utilized to treat hyperoroliferative skin disease in a mammal. As used herein, "hyperproliferative skin disease" means any condition a symptom of which is accelerated skin cell production, flaking, scales or papular lesions. Representative examples of hyperproliferative skin diseases include osoriasis, eczema, dandruff and the like. […] The Arachidonic Acid Mouse Ear Test is a recognized model for assessing the effectiveness of compounds for the treatment of hyperproliferative skin disease.
# Charles River, female, CD, (SD) BR mice, 6 weeks old, are caged 8/group and allowed to acclimate 1-3 weeks prior to use.
# Arachidonic acid (AA) is dissolved in reagent grade acetone (2 mg/0.01 ml) and stored at -20° C. for a maximum of 1 week prior to use. Inflammatory reactions are induced by applying 10 μl of AA to both surfaces of one ear (4 mg total).
# Test drugs are dissolved in either reagent grade acetone or acueous ethanol (only if insoluble in acetone) at the same doses selected by Opas et al., Fed. Proc. 43, Abstract 2983, P. 1927 (1984) and Young et al., J. Invest. Dermatol. 82, pp. 367-371 (1984). These doses are employed to ensure maximum responses and to overcome any difference in topical absorption which could occur with any drug applied in an aqueous ethanol vehicle. The test drug is applied 30 minutes prior to challenge with AA.
# The severity of the skin reaction is measured as a function of increased ear weight. A 6 mm punch biopsy is removed 1 hour after AA challenge and weighed to the nearest 0.1 mg. Mean ± standard error and all possible comparisons are made via Duncan's Multiple Range Statistic.
structure (smiles),measurement,setting,value
"O=C1c2cccnc2N(c2ccccc2)C(=O)C12CCCCO2 (centres unmarked) [1-Phenyl-3',4',5',6'-tetrahydro-spiro-[1,8-naphthyridine-3,2'-(2H)pyran]-2,4-dione]",Tissue Wt.,dose 0.125 mg/ear,4.86 ± 0.39 mg
same,% Inhibition,dose 0.125 mg/ear,30%
same,Tissue Wt.,dose 0.25 mg/ear,4.97 ± 0.7 mg
same,% Inhibition,dose 0.25 mg/ear,28%
same,Tissue Wt.,dose 0.5 mg/ear,4.39 ± 0.62 mg
same,% Inhibition,dose 0.5 mg/ear,37%
same,Tissue Wt.,dose 1.0 mg/ear,2.27 ± 0.29 mg
same,% Inhibition,dose 1.0 mg/ear,67%

# From patent US4775524A, “Method of treating hyperproliferative skin disease with substituted heterospiro pyridine derivatives” (Schering Corporation, priority 1986, dated 1988)
